# According to the kinase profiling compilation of Christmann-Franck et al. (2016):
# Key:
# Test in all cases: KINOMEscan competition binding
# Details in all cases: compound 10.0 µM
# [1] = target: NEK7 (human) (UniProt Q8TDX7)
# [2] = target: MAPK9 (human) (UniProt P45984)
# [3] = target: MYLK2 (human) (UniProt Q9H1R3)
# [4] = target: LATS1 (human) (UniProt O95835)
# [5] = target: SRPK2 (human) (UniProt P78362)
# [6] = target: CDC42BPA (human) (UniProt Q5VT25)
# [7] = target: MAP3K9 (human) (UniProt P80192)
# [8] = target: PHKG1 (human) (UniProt Q16816)
# [9] = target: SRC (human) (UniProt P12931)
# [10] = target: LIMK2 (human) (UniProt P53671)
# [11] = target: PIK3CD (human) (UniProt O00329)
# [12] = target: CSNK1A1L (human) (UniProt Q8N752)
# Sequence of CSNK1A1L (human) (Q8N752 whole entry, looked up): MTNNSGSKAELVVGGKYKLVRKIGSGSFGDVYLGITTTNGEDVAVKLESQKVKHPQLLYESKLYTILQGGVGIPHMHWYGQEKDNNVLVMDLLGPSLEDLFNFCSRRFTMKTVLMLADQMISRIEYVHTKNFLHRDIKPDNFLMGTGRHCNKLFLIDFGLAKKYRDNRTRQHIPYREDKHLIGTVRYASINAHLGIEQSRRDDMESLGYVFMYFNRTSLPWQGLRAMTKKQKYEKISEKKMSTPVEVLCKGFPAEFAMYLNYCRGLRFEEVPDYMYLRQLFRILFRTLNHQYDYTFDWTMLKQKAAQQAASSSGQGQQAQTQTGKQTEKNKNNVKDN
# [13] = target: NTRK2 (human) (UniProt Q16620)
# [14] = tested on: KIT (human), P10721 [V559D]
# Sequence of KIT (human), P10721 [V559D] (P10721 whole entry V559D, looked up): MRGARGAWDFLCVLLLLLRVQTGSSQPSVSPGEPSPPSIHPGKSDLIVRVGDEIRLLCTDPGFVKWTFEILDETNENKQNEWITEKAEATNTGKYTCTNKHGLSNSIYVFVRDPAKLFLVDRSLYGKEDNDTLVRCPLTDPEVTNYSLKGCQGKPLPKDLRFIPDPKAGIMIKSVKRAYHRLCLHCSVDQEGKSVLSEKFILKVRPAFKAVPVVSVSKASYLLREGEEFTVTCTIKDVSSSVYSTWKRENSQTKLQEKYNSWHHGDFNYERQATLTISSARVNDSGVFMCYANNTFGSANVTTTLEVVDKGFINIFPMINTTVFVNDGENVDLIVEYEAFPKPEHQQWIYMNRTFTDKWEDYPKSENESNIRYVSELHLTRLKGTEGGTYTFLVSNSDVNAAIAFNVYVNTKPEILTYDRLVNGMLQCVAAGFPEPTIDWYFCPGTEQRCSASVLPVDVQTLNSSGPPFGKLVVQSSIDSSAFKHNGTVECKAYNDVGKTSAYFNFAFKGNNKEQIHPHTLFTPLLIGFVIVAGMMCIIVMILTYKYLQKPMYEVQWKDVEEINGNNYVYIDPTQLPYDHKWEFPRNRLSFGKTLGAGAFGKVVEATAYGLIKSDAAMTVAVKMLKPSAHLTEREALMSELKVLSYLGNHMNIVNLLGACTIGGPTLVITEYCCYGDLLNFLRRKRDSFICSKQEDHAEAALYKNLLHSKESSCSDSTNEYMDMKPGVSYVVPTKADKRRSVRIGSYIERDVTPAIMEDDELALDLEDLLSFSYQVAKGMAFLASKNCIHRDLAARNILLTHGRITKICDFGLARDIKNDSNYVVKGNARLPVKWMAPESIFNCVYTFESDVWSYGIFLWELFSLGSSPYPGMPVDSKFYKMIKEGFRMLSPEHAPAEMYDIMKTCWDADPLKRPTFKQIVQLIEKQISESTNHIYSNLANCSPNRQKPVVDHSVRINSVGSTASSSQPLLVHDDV
# [15] = target: MKNK2 (human) (UniProt Q9HBH9)
# [16] = target: STK11 (human) (UniProt Q15831)
# Sequence of STK11 (human) (Q15831 whole entry, looked up): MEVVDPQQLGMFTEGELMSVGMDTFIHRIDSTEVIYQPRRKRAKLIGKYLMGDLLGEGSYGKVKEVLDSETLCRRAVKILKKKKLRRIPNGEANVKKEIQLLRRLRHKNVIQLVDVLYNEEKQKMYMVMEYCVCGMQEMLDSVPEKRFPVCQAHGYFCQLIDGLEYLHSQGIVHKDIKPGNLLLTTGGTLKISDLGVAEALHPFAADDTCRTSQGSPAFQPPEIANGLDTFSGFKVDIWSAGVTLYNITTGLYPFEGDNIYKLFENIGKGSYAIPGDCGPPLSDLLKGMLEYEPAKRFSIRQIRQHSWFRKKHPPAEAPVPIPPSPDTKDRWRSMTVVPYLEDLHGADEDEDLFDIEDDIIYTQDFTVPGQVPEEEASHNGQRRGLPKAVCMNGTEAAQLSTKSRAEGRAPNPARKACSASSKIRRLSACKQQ
# [17] = target: PLK3 (human) (UniProt Q9H4B4)
# [18] = tested on: ABL1 (human), P00519 [M351T]
# [19] = target: INSRR (human) (UniProt P14616)
# [20] = target: STK17A (human) (UniProt Q9UEE5)
# [21] = target: TAOK3 (human) (UniProt Q9H2K8)
# [22] = target: DCLK1 (human) (UniProt O15075)
# [23] = target: SGK110 (human) (UniProt P0C264)
# [24] = target: RIOK2 (human) (UniProt Q9BVS4)
# [25] = target: STK4 (human) (UniProt Q13043)
# [26] = target: MYO3B (human) (UniProt Q8WXR4)
# [27] = target: ABL2 (human) (UniProt P42684)
# Sequence of ABL2 (human) (P42684 whole entry, looked up): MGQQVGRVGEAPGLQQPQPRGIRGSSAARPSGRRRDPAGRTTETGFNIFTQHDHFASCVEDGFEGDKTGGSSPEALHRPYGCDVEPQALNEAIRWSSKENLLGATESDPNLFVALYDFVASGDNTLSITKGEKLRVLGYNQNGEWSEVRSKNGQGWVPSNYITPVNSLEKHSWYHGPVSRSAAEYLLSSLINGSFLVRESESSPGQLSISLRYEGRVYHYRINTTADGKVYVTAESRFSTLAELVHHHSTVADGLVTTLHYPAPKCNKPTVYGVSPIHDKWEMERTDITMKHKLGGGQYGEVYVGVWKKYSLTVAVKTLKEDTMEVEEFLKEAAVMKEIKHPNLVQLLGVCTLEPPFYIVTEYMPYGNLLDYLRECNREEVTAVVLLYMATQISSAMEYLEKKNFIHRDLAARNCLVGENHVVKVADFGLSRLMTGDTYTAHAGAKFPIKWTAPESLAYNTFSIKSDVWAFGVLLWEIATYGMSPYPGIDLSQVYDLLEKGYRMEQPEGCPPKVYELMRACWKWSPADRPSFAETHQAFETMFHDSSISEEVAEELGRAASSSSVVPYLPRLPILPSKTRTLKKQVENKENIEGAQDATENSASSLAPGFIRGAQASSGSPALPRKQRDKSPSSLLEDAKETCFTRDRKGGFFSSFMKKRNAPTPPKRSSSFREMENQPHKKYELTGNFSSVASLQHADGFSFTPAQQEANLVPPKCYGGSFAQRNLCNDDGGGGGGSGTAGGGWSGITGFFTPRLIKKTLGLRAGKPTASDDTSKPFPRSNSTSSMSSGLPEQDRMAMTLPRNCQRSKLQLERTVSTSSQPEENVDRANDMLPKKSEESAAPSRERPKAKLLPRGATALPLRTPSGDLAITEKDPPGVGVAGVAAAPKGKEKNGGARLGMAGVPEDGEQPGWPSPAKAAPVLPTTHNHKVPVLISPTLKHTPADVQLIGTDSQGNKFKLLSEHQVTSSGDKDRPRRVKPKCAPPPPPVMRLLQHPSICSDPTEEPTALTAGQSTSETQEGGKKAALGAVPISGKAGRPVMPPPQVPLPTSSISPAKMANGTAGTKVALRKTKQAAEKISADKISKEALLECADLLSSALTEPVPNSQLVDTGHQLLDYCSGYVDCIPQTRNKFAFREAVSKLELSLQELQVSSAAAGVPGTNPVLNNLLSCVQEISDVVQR
# [28] = target: PIK3C2B (human) (UniProt O00750)
# [29] = target: ANKK1 (human) (UniProt Q8NFD2)
# [30] = target: MAPK8 (human) (UniProt P45983)
# Sequence of MAPK8 (human) (P45983 whole entry, looked up): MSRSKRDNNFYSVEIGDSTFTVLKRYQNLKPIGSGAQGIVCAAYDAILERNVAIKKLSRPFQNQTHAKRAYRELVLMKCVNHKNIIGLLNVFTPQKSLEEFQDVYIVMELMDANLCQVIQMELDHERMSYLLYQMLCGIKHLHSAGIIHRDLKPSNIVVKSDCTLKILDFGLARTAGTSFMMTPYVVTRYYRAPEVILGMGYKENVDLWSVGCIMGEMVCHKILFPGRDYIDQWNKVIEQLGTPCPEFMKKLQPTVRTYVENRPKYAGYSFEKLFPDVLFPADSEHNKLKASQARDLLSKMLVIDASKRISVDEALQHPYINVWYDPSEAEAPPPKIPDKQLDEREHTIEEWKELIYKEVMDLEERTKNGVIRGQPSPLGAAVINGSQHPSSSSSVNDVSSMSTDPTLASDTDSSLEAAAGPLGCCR
# [31] = target: EPHA8 (human) (UniProt P29322)
# [32] = target: MAP3K10 (human) (UniProt Q02779)
# [33] = target: PIM3 (human) (UniProt Q86V86)
# [34] = target: SLK (human) (UniProt Q9H2G2)
# [35] = target: MAPK14 (human) (UniProt Q16539)
# [36] = target: STK17B (human) (UniProt O94768)
# [37] = target: MAP2K6 (human) (UniProt P52564)
# [38] = target: CDK16 (human) (UniProt Q00536)
# [39] = target: PRKAA1 (human) (UniProt Q13131)
# [40] = target: YES1 (human) (UniProt P07947)
# Sequence of CDC42BPA (human) (Q5VT25 whole entry, looked up): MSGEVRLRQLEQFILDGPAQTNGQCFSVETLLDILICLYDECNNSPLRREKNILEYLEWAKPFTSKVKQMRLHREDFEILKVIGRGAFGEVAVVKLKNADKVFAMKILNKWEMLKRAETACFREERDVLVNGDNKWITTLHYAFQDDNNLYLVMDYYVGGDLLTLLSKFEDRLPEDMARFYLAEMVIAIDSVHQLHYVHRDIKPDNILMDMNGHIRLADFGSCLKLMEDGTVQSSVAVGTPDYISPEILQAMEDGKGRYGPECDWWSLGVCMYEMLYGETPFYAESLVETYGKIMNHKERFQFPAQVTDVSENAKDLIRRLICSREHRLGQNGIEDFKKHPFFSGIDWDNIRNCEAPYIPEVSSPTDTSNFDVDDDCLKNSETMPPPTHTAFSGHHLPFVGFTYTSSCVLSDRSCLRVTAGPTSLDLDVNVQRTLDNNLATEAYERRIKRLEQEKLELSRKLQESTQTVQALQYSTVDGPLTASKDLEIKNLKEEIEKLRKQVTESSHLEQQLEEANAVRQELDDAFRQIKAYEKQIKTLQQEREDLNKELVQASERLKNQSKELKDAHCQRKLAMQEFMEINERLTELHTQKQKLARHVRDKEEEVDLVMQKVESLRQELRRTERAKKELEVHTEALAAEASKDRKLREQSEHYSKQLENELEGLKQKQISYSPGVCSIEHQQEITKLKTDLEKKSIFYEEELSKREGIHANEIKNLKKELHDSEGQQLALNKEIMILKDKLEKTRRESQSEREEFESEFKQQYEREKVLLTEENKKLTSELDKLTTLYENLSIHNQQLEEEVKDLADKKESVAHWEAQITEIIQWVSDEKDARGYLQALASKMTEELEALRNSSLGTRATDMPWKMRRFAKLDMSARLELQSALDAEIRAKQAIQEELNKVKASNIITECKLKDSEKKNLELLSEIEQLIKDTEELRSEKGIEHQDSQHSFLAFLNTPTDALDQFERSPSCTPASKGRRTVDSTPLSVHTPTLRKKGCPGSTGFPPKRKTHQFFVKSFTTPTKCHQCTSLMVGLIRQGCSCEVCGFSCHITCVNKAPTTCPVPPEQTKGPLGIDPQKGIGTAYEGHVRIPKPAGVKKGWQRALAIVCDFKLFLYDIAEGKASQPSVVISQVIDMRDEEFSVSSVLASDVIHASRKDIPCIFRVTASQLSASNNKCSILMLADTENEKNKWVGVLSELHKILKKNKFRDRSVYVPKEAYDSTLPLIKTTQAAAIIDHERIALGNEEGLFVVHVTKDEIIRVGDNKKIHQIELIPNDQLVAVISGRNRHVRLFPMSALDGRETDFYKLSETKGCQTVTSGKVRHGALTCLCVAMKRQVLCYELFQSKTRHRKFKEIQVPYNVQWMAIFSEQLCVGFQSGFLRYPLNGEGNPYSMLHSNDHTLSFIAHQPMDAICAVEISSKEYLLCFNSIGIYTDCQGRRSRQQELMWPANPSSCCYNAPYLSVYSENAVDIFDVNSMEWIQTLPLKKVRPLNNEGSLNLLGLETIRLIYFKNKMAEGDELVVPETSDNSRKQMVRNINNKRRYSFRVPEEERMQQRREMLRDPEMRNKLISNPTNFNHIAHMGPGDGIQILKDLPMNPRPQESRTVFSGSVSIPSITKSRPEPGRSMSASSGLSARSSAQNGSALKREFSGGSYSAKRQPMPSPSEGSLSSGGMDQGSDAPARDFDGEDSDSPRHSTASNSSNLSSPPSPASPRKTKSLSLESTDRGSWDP
smiles,measurement,setting,value
COc1cc(N2CCN(C)CC2)ccc1Nc1nc(N)c(C(=O)c2c(Cl)cccc2Cl)s1,"kinase still bound, per cent of control",[1],100%
same,"kinase still bound, per cent of control",[2],100%
same,"kinase still bound, per cent of control",[3],87%
same,"kinase still bound, per cent of control",[4],100%
same,"kinase still bound, per cent of control",[5],100%
same,"kinase still bound, per cent of control",[6],100%
same,"kinase still bound, per cent of control",[7],100%
same,"kinase still bound, per cent of control",[8],82%
same,"kinase still bound, per cent of control",[9],100%
same,"kinase still bound, per cent of control",[10],94%
same,"kinase still bound, per cent of control",[11],98%
same,"kinase still bound, per cent of control",[12],100%
same,"kinase still bound, per cent of control",[13],80%
same,"kinase still bound, per cent of control",[14],100%
same,"kinase still bound, per cent of control",[15],77%
same,"kinase still bound, per cent of control",[16],100%
same,"kinase still bound, per cent of control",[17],88%
same,"kinase still bound, per cent of control",[18],84%
same,"kinase still bound, per cent of control",[19],100%
same,"kinase still bound, per cent of control",[20],100%
same,"kinase still bound, per cent of control",[21],12%
same,"kinase still bound, per cent of control",[22],3%
same,"kinase still bound, per cent of control",[23],100%
same,"kinase still bound, per cent of control",[24],100%
same,"kinase still bound, per cent of control",[25],100%
same,"kinase still bound, per cent of control",[26],94%
same,"kinase still bound, per cent of control",[27],82%
same,"kinase still bound, per cent of control",[28],98%
same,"kinase still bound, per cent of control",[29],96%
same,"kinase still bound, per cent of control",[30],81%
same,"kinase still bound, per cent of control",[31],73%
same,"kinase still bound, per cent of control",[32],100%
same,"kinase still bound, per cent of control",[33],100%
same,"kinase still bound, per cent of control",[34],1.6%
same,"kinase still bound, per cent of control",[35],94%
same,"kinase still bound, per cent of control",[36],73%
same,"kinase still bound, per cent of control",[37],85%
same,"kinase still bound, per cent of control",[38],62%
same,"kinase still bound, per cent of control",[39],81%
Cc1cc([C@@H](C)Nc2ccccc2C(=O)O)c2nc(N3CCOCC3)cc(=O)n2c1,"kinase still bound, per cent of control",[1],100%
same,"kinase still bound, per cent of control",[2],66%
same,"kinase still bound, per cent of control",[3],100%
same,"kinase still bound, per cent of control",[4],100%
same,"kinase still bound, per cent of control",[5],85%
same,"kinase still bound, per cent of control",[6],96%
same,"kinase still bound, per cent of control",[7],91%
same,"kinase still bound, per cent of control",[8],93%
same,"kinase still bound, per cent of control",[9],100%
same,"kinase still bound, per cent of control",[10],100%
same,"kinase still bound, per cent of control",[12],100%
same,"kinase still bound, per cent of control",[14],91%
same,"kinase still bound, per cent of control",[15],92%
same,"kinase still bound, per cent of control",[16],98%
same,"kinase still bound, per cent of control",[17],89%
same,"kinase still bound, per cent of control",[18],94%
same,"kinase still bound, per cent of control",[19],100%
same,"kinase still bound, per cent of control",[20],98%
same,"kinase still bound, per cent of control",[40],100%
same,"kinase still bound, per cent of control",[21],100%
same,"kinase still bound, per cent of control",[22],78%
same,"kinase still bound, per cent of control",[23],100%
same,"kinase still bound, per cent of control",[24],54%
same,"kinase still bound, per cent of control",[25],95%
same,"kinase still bound, per cent of control",[26],93%
same,"kinase still bound, per cent of control",[27],95%
same,"kinase still bound, per cent of control",[28],0.35%
same,"kinase still bound, per cent of control",[29],100%
same,"kinase still bound, per cent of control",[30],100%
same,"kinase still bound, per cent of control",[31],96%
same,"kinase still bound, per cent of control",[32],96%
same,"kinase still bound, per cent of control",[33],100%
same,"kinase still bound, per cent of control",[34],100%
same,"kinase still bound, per cent of control",[35],97%
same,"kinase still bound, per cent of control",[36],100%
same,"kinase still bound, per cent of control",[37],92%
same,"kinase still bound, per cent of control",[38],100%
same,"kinase still bound, per cent of control",[39],100%
C[C@@H](Oc1cc(-n2cnc3ccc(CN4CCN(C)CC4)cc32)sc1C(N)=O)c1ccccc1C(F)(F)F,"kinase still bound, per cent of control",[1],66%
same,"kinase still bound, per cent of control",[2],100%
same,"kinase still bound, per cent of control",[3],61%
same,"kinase still bound, per cent of control",[4],100%
same,"kinase still bound, per cent of control",[5],59%
same,"kinase still bound, per cent of control",[6],95%
same,"kinase still bound, per cent of control",[7],17%
same,"kinase still bound, per cent of control",[8],94%
same,"kinase still bound, per cent of control",[9],100%
same,"kinase still bound, per cent of control",[10],100%
same,"kinase still bound, per cent of control",[11],14%
same,"kinase still bound, per cent of control",[12],84%
same,"kinase still bound, per cent of control",[13],68%
same,"kinase still bound, per cent of control",[14],38%
same,"kinase still bound, per cent of control",[15],23%
same,"kinase still bound, per cent of control",[16],90%
same,"kinase still bound, per cent of control",[17],3.6%
same,"kinase still bound, per cent of control",[18],93%
same,"kinase still bound, per cent of control",[19],100%
same,"kinase still bound, per cent of control",[20],100%
same,"kinase still bound, per cent of control",[22],40%
same,"kinase still bound, per cent of control",[23],100%
same,"kinase still bound, per cent of control",[24],65%
same,"kinase still bound, per cent of control",[25],100%
same,"kinase still bound, per cent of control",[26],100%
same,"kinase still bound, per cent of control",[27],90%
same,"kinase still bound, per cent of control",[28],14%
same,"kinase still bound, per cent of control",[29],26%
same,"kinase still bound, per cent of control",[30],100%
same,"kinase still bound, per cent of control",[31],90%
same,"kinase still bound, per cent of control",[32],92%
same,"kinase still bound, per cent of control",[33],11%
same,"kinase still bound, per cent of control",[34],0.25%
same,"kinase still bound, per cent of control",[35],100%
same,"kinase still bound, per cent of control",[36],100%
same,"kinase still bound, per cent of control",[37],98%
same,"kinase still bound, per cent of control",[38],100%
same,"kinase still bound, per cent of control",[39],57%
CCOc1cc2ncc(C#N)c(Nc3ccc(OCc4ccccn4)c(Cl)c3)c2cc1NC(=O)/C=C/CN(C)C,"kinase still bound, per cent of control",[1],100%
same,"kinase still bound, per cent of control",[2],52%
same,"kinase still bound, per cent of control",[3],79%
same,"kinase still bound, per cent of control",[4],90%
same,"kinase still bound, per cent of control",[5],85%
same,"kinase still bound, per cent of control",[6],91%
same,"kinase still bound, per cent of control",[7],84%
same,"kinase still bound, per cent of control",[8],92%
same,"kinase still bound, per cent of control",[9],82%
same,"kinase still bound, per cent of control",[10],100%
same,"kinase still bound, per cent of control",[12],98%
same,"kinase still bound, per cent of control",[13],95%
same,"kinase still bound, per cent of control",[14],100%
same,"kinase still bound, per cent of control",[15],99%
same,"kinase still bound, per cent of control",[16],94%
same,"kinase still bound, per cent of control",[17],94%
same,"kinase still bound, per cent of control",[18],100%
same,"kinase still bound, per cent of control",[19],94%
same,"kinase still bound, per cent of control",[20],37%
same,"kinase still bound, per cent of control",[40],26%
same,"kinase still bound, per cent of control",[21],75%
same,"kinase still bound, per cent of control",[22],100%
same,"kinase still bound, per cent of control",[23],100%
same,"kinase still bound, per cent of control",[24],53%
same,"kinase still bound, per cent of control",[25],17%
same,"kinase still bound, per cent of control",[26],100%
same,"kinase still bound, per cent of control",[27],92%
same,"kinase still bound, per cent of control",[28],100%
same,"kinase still bound, per cent of control",[29],100%
same,"kinase still bound, per cent of control",[30],16%
same,"kinase still bound, per cent of control",[31],78%
same,"kinase still bound, per cent of control",[32],88%
same,"kinase still bound, per cent of control",[33],100%
same,"kinase still bound, per cent of control",[34],1.4%
same,"kinase still bound, per cent of control",[35],91%
same,"kinase still bound, per cent of control",[36],46%
same,"kinase still bound, per cent of control",[37],100%
same,"kinase still bound, per cent of control",[39],79%
